Source: ChEMBL document CHEMBL5584353, “Design, Synthesis, and Biological Evaluation of Potent EZH2/LSD1 Dual Inhibitors for Prostate Cancer” (J Med Chem, 2024)
Activity calls are given as the source filed them. The calls are words filed in the database; no cut-off is given here.

Assays:
[1] = target: T1, Histone-lysine N-methyltransferase EZH1 (Homo sapiens, UniProt Q92800); experiment: Inhibition of EZH1 (unknown origin)
T1 sequence (Q92800 whole entry): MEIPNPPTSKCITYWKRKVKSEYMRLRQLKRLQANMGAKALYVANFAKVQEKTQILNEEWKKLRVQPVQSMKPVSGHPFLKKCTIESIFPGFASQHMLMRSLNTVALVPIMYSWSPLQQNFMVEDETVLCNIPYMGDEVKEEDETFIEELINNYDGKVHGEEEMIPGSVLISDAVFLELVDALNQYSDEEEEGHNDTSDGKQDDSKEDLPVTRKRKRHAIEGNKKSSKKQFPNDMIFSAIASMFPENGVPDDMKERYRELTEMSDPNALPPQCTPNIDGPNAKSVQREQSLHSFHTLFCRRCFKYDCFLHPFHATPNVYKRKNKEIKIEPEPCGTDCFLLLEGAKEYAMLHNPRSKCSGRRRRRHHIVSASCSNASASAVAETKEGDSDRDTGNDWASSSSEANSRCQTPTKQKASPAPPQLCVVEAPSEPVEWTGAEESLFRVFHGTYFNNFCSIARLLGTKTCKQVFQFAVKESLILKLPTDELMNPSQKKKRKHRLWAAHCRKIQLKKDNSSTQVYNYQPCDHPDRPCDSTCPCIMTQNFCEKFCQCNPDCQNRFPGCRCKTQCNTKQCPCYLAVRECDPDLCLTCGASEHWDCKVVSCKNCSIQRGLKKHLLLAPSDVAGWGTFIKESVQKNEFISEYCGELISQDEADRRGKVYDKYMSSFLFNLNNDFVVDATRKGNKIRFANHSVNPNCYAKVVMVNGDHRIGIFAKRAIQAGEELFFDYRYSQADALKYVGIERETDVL

[2] = AUC (0 to infinity) in BALB/c mouse at 50 mg/kg,iv measured upto 24 hrs by HPLC-MS/MS analysis; assay type: ADME, organism-based; details: in vivo
[3] = Oral bioavailability in BALB/c mouse at 50 mg/kg measured upto 24 hrs by HPLC-MS/MS analysis; assay type: ADME, organism-based; details: in vivo
CWR22R [4] = experiment: Induction of apoptosis in human 22Rv1 cells at 10 uM incubated for 5 days by Annexin V-FITC/PI staining based flow cytometric analysis (reference value: 8.97 %); assay type: functional; details: time 5 day
[5] = Clearance in BALB/c mouse at 50 mg/kg,po measured upto 24 hrs by HPLC-MS/MS analysis; assay type: ADME, organism-based; details: in vivo
CWR22R [6] = experiment: Antitumor activity against human 22Rv1 cells xenografted in BALB/c mouse assessed as reduction in Ki67 expression at 80 mg/kg,ip administrated daily for 31 days by immunofluorescence analysis; assay type: functional, organism-based; details: time 31.0 day
CWR22R [7] = experiment: Induction of apoptosis in human 22Rv1 cells assessed as upregulation of p21 expression incubated for 48 hr by Western blotting analysis; assay type: functional, cell-based
LNCaP [8] = experiment: Antiproliferative activity against human LNCaP cells assessed as inhibition of cell growth incubated for 6 to 7 days by MTS assay; assay type: functional, cell-based; details: time 6-7 day
CWR22R [9] = experiment: Induction of apoptosis in human 22Rv1 cells at 5 uM incubated for 5 days by Annexin V-FITC/PI staining based flow cytometric analysis (reference value: 8.97 %); assay type: functional; details: time 5 day
[10] = target: T2, Lysine-specific histone demethylase 1A (Homo sapiens, UniProt O60341); experiment: Inhibition of LSD1 in human LNCaP cells assessed as upregulation of H3K9me2 expression at 1 to 5 uM incubated for 5 days by Western blotting analysis; assay type: cell-based; details: dose 1-5 µM, time 5.0 day
PC-3 [11] = experiment: Induction of cell cycle arrest in human PC-3 cells assessed as accumulation of cells at G0/G1 phase incubated for 72 hrs by propidium iodide/RNase staining based flow cytometric analysis; assay type: functional
[12] = Metabolic stability in Sprague-Dawley rat hepatocyte assessed as compound remaining at 20 uM by HPLC-MS/MS analysis; assay type: ADME, cell-based; details: hepatocytes, read-out: Stability
[13] = Toxicity in BALB/c mouse xenografted with human 22Rv1 cells assessed as lung morphological change at 80 mg/kg,ip administrated daily for 31 days; assay type: organism-based, CWR22R; details: in vivo, 744 h, time 31 day
MOLM-13 = experiment: Antiproliferative activity against human MOLM-13 cells assessed as inhibition of cell growth incubated for 6 to 7 days by MTS assay; assay type: functional, cell-based; details: time 6-7 day
CWR22R [14] = details: Homo sapiens, dose 80.0 mg/kg, route ip, time 31.0 day
PC-3 [15] = experiment: Growth inhibition of human PC-3 cells incubated for 6 to 7 days by MTS assay; assay type: functional; details: time 6-7 day
U-937 = experiment: Antiproliferative activity against human U-937 cells assessed as inhibition of cell growth incubated for 6 to 7 days by MTS assay; assay type: functional, cell-based; details: time 6-7 day
[16] = target: T2, Lysine-specific histone demethylase 1A; experiment: Inhibition of LSD1 in human 22Rv1 cells assessed as upregulation of H3K9me2 expression at 1 to 5 uM incubated for 5 days by Western blotting analysis; assay type: cell-based; details: dose 1-5 µM, time 5.0 day
CWR22R [17] = experiment: Antimigratory activity in human 22Rv1 cells assessed as upregulation of E-cadherin expression at 3 to 10 uM incubated for 48 hrs by Western blotting analysis; assay type: functional, cell-based; details: dose 3-10 µM
LNCaP [18] = experiment: Induction of cell cycle arrest in human LNCaP cells assessed as accumulation of cells at G0/G1 phase incubated for 72 hrs by propidium iodide/RNase staining based flow cytometric analysis; assay type: functional
[19] = Half life in BALB/c mouse at 50 mg/kg,iv measured upto 24 hrs by HPLC-MS/MS analysis; assay type: ADME, organism-based; details: in vivo
[20] = target: T2, Lysine-specific histone demethylase 1A; experiment: Inhibition of LSD1 in human LNCaP cells assessed as upregulation of H3K4me2 expression at 1 to 5 uM incubated for 5 days by Western blotting analysis; assay type: cell-based; details: dose 1-5 µM, time 5.0 day
[21] = Toxicity in BALB/c mouse xenografted with human 22Rv1 cells assessed as spleen morphological change at 80 mg/kg,ip administrated daily for 31 days; assay type: organism-based, CWR22R; details: in vivo, 744 h, time 31 day
LNCaP [22] = experiment: Antimigratory activity in human LNCaP cells assessed as upregulation of E-cadherin expression at 3 to 10 uM incubated for 48 hrs by Western blotting analysis; assay type: functional, cell-based; details: dose 3-10 µM
A549 = experiment: Antiproliferative activity against human A549 cells assessed as inhibition of cell growth incubated for 6 to 7 days by MTS assay; assay type: functional, cell-based; details: time 6-7 day
SUD4 = experiment: Antiproliferative activity against human SU-DHL-4 cells assessed as inhibition of cell growth incubated for 6 to 7 days by MTS assay; assay type: functional, cell-based; details: time 6-7 day
[23] = Toxicity in BALB/c mouse xenografted with human 22Rv1 cells assessed as liver morphological change at 80 mg/kg,ip administrated daily for 31 days; assay type: organism-based, CWR22R; details: in vivo, 744 h, time 31 day
[24] = Toxicity in BALB/c mouse xenografted with human 22Rv1 cells assessed as change in body weight at 80 mg/kg,ip administrated daily for 31 days; assay type: organism-based, CWR22R; details: in vivo, 744 h, time 31 day
BEAS-2B = experiment: Cytotoxicity against human BEAS-2B cells incubated for 6 to 7 days by MTS assay; assay type: toxicity, cell-based; details: time 6-7 day
PC-3 [25] = experiment: Induction of apoptosis in human PC-3 cells at 1 to 10 uM incubated for 5 days by Annexin V-FITC/PI staining based flow cytometric analysis; assay type: functional, cell-based; details: dose 1-10 µM, time 5.0 day
CWR22R [26] = experiment: Antiproliferative activity against human 22Rv1 cells assessed as inhibition of cell growth incubated for 6 to 7 days by MTS assay; assay type: functional, cell-based; details: time 6-7 day

IC50 [1]: 2160 nM
AUC(0-inf) [2]: 126 µg·h/mL
bioavailability [3]: 32.9%
CL/F [5]: 20 mL/min/kg
inhibition [10]: Active
remaining at 20 µM [12]: 100%
GI50 (PC-3 [15]): 1040 nM
inhibition [16]: Active
half-life [19]: 2.5 h
inhibition [20]: Active
SMILES: CCN(c1cc(-c2ccc([C@@H]3C[C@H]3N(CC3CCOCC3)C(=O)OC(C)(C)C)cc2)cc(C(=O)NCc2c(C)cc(C)[nH]c2=O)c1C)C1CCOCC1 (racemic)
Activity (CWR22R [4]): 50.06%
Activity (CWR22R [6]): Active
Activity (CWR22R [7]): Dose-Dependent Effect
Activity (LNCaP [8]): Active
Activity (CWR22R [9]): 30.97%
Activity (PC-3 [11]): Dose-Dependent Effect
Activity [13]: Non-Toxic
Activity (MOLM-13): Active
inhibition (CWR22R [14]): Active
Activity (U-937): Active
Activity (CWR22R [17]): Active
Activity (LNCaP [18]): Dose-Dependent Effect
Activity [21]: Non-Toxic
Activity (LNCaP [22]): Active
Activity (A549): Active
Activity (SUD4): Active
Activity [23]: Non-Toxic
Activity [24]: Non-Toxic
Activity (BEAS-2B): Non-Toxic
Activity (PC-3 [25]): Active
Activity (CWR22R [26]): Active
